# Experimental data: paper PMC8279416, “Structural Fine-Tuning of Desmuramylpeptide NOD2 Agonists Defines Their In Vivo Adjuvant Activity” (Journal of Medicinal Chemistry, 2021)
# “And” between values parts separate entries of the source, which are not always exact repeats. Equal values may be shown once.
# Molecular target: T1, NOD2 (Homo sapiens, UniProt Q9HC29)
# T1 construct: host or cells: HEK-Blue NOD2 cells (HEK293-derived)
# Assay: HEK-Blue NOD2 cell line reporter assay (NF-κB-inducible SEAP)
# Format: cell-based
# Conditions: for NOD2 activity at 2 μM (fold increase) / EC50 / NOD2 activation (in words): HEK-Blue NOD2 cells; for NOD2 activity at 2 μM (fold increase): NF-κB transcriptional (SEAP) activity relative to 0.1% DMSO; for NOD2 activation (in words): compound alone
# Method: To determine the NOD2 agonistic potential of the synthesized desmuramylpeptides at the cellular level, we used the validated and commercially available HEK-Blue NOD2 cell line reporter assay. HEK-Blue NOD2 cells were first treated for 18 h with MDP, 1, or the novel desmuramylpeptides at 2 μM. The NF-κB transcriptional activity measured was normalized to that of the vehicle treated (0.1% DMSO) control HEK-Blue NOD2 cells.
# HEK-Blue NOD2 and NOD1 cell line reporter assays are derived from HEK293 cells by cotransfection of the hNOD2 or hNOD1 genes, respectively, and an NF-κB-inducible secreted embryonic alkaline phosphatase (SEAP) reporter gene. Following activation of NOD2 or NOD1, the resulting NF-κB induces production of SEAP, the levels of which can be quantified colorimetrically. […] After 18 h of incubation (37 °C, 5% CO2), secreted embryonic alkaline phosphatase (SEAP) activity was determined spectrophotometrically as absorbance at 630 nm (BioTek Synergy microplate reader; Winooski, VT, U.S.A.). EC50 values were calculated using Prism software (version 9; GraphPad Software, CA, U.S.A.). For determination of specificity, HEK-Blue NOD2 cells (2.5 × 10^5 cells/mL) were first pretreated for 1 h with a 10 μM NOD2 antagonist, before the addition of the compounds (2 μM), with incubation for 18 h. SEAP activity in the supernatants was determined as above. The experiments were run in duplicate and repeated as at least two independent biological replicates.
# [1] = 18 h, 7 or 8 concentrations 1 nM to 20 μM, mean ± SEM
# T1 sequence (Q9HC29 whole entry): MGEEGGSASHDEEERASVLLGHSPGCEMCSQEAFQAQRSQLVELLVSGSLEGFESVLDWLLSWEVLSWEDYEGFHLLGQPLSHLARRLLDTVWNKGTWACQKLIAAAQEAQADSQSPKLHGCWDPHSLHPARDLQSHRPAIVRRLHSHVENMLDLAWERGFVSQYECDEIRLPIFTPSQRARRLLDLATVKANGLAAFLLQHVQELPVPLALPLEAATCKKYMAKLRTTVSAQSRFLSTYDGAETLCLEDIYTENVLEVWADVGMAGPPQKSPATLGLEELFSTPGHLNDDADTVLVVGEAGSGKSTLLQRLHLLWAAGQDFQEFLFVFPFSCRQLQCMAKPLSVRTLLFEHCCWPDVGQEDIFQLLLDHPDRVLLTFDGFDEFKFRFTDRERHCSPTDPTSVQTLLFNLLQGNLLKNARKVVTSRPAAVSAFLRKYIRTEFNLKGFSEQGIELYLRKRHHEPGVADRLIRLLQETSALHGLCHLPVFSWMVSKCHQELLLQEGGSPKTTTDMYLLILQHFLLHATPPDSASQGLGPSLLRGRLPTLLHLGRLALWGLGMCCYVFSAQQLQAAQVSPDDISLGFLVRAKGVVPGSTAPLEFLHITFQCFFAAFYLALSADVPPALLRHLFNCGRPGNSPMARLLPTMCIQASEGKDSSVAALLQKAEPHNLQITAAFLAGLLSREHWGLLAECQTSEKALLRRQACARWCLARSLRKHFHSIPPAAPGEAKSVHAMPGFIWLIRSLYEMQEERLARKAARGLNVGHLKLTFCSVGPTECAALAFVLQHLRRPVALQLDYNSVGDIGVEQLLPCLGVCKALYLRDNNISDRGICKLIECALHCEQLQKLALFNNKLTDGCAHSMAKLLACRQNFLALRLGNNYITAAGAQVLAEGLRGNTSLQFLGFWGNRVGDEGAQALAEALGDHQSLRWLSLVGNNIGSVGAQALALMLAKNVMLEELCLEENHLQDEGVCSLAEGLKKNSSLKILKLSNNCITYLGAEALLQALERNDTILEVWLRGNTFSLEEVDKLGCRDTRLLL
Compound,"NOD2 activity at 2 μM (fold increase) (18 h, mean ± SEM)",EC50 [1] [µM],EC50 [µM],"Decrease of NOD2 agonistic activity/potency by a factor, relative to 1 (ratio of EC50 versus compound 1)",NOD2 activation (in words)
"CCOC(=O)CC[C@@H](NC(=O)[C@@H](NC(=O)CNC(=O)/C=C/c1ccc([N+](=O)[O-])cc1)C(C)C)C(=O)OCC [Compound 26, Diethyl ((E)-3-(4-Nitrophenyl)acryloyl)glycyl-L-valyl-D-glutamate]",3.02 ± 0.07 fold increase,0.049 ± 0.004,–,–,–
"CCOC(=O)CC[C@@H](NC(=O)[C@@H](NC(=O)CNC(=O)/C=C/c1ccc(O)c(OC)c1)[C@@H](C)O)C(=O)OCC [Compound 32, Diethyl ((E)-3-(4-Hydroxy-3-methoxyphenyl)acryloyl)glycyl-L-threonyl-D-glutamate]",1.54 ± 0.02 fold increase,12.5 ± 1.22,–,–,–
"CCOC(=O)CC[C@@H](NC(=O)[C@H](COCc1ccccc1)NC(=O)CNC(=O)/C=C/c1ccc(O)c(OC)c1)C(=O)OCC [Compound 30, Diethyl O-Benzyl-N-(((E)-3-(4-hydroxy-3-methoxyphenyl)acryloyl)glycyl)-L-seryl-D-glutamate]",2.04 fold increase and 2.04 ± 0.02 fold increase,5.56 ± 1.47,5.56,–,–
CCOC(=O)CC[C@@H](NC(=O)[C@@H](NC(=O)CNC(=O)[C@@H]1C[C@H]1c1ccc(F)c(F)c1)C(C)C)C(=O)OCC [Compound 29b],2.71 ± 0.05 fold increase,0.039 ± 0.001,–,–,–
"CCOC(=O)CC[C@@H](NC(=O)[C@@H](NC(=O)CNC(=O)CCc1ccc(O)c(OC)c1)C(C)C)C(=O)OCC [Compound 18, Diethyl (3-(4-Hydroxy-3-methoxyphenyl)propanoyl)glycyl-L-valyl-D-glutamate]",1.97 ± 0.05 fold increase,6.16 ± 0.842,6.16,70,–
"CCNC(=O)CC[C@@H](NC(=O)[C@@H](NC(=O)CNC(=O)/C=C/c1ccc(O)c(OC)c1)C(C)C)C(=O)NCC [Compound 57, (R)-N^1,N^5-Diethyl-2-((S)-2-(2-((E)-3-(4-hydroxy-3-methoxyphenyl)acrylamido)acetamido)-3-methylbutanamido)pentanediamide]",1.45 ± 0.05 fold increase,–,–,–,substantially diminished activity
"COc1cc(/C=C/C(=O)NCC(=O)N[C@H](C(=O)N[C@H](CCC(=O)OC2CCCC2)C(=O)OC2CCCC2)C(C)C)ccc1OC(C)=O [Compound 76, Dicyclopentyl ((E)-3-(4-Acetoxy-3-methoxyphenyl)acryloyl)glycyl-L-valyl-D-glutamate]",2.67 ± 0.25 fold increase,0.063 ± 0.0002,–,–,–
"CCCCNC(=O)CC[C@@H](NC(=O)[C@@H](NC(=O)CNC(=O)/C=C/c1ccc(O)c(OC)c1)C(C)C)C(=O)NCCCC [Compound 58, (R)-N^1,N^5-Dibutyl-2-((S)-2-(2-((E)-3-(4-hydroxy-3-methoxyphenyl)acrylamido)acetamido)-3-methylbutanamido)pentanediamide]",1.30 ± 0.03 fold increase,–,–,–,–
"COc1cc(/C=C/C(=O)NCC(=O)N[C@H](C(=O)N[C@H](CCC(=O)OC(C)(C)C)C(=O)OC(C)(C)C)C(C)C)ccc1O [Compound 56, Di-tert-butyl ((E)-3-(4-Hydroxy-3-methoxyphenyl)acryloyl)glycyl-L-valyl-D-glutamate]",1.20 ± 0.10 fold increase,–,–,–,markedly reduced NOD2 activation
"CCOC(=O)CC[C@@H](NC(=O)[C@@H](NC(=O)CNC(=O)/C=C/c1ccc(N)cc1)C(C)C)C(=O)OCC [Compound 24, Diethyl ((E)-3-(4-Aminophenyl)acryloyl)glycyl-L-valyl-D-glutamate]",2.45 ± 0.18 fold increase,0.542 ± 0.048,–,–,–
"CCCCCCCCCCCC(=O)Oc1ccc(/C=C/C(=O)NCC(=O)N[C@H](C(=O)N[C@H](CCC(=O)OC2CCCC2)C(=O)OC2CCCC2)C(C)C)cc1OC [Compound 77, Dicyclopentyl ((E)-3-(4-(Dodecanoyloxy)-3-methoxyphenyl)acryloyl)glycyl-L-valyl-D-glutamate]",2.56 ± 0.12 fold increase,0.243 ± 0.05,–,–,–
